Test results from PubChem BioAssay AID1996.
Values after ≈ are worked out from the molar mass of the structure shown.

Settings: buffer; pH 7.4; 200.0 µM

First: CCOC(=O)C1=C(C)N(C)C(=O)NC1c1ccc2c(c1)OCO2 (stereo not given)
Second: CCCOC(=O)C1=C(C)NC(=O)NC1c1cccc2ccccc12 (stereo not given)
The solubility kinetic of the first is higher: > 47.7 µg/mL for the first, < 0.3 µg/mL for the second.

Compared with `O=C(CSc1ccc(Cl)cc1)NCc1ccco1`, `Cc1ccc(Cl)cc1NC(=O)COc1ccccc1` is 8.6-fold lower in solubility kinetic: 16.3 µg/mL (≈ 57.8 µM) for the first, 1.9 µg/mL (≈ 6.89 µM) for the second.

Compared with `COc1ccc(CNS(=O)(=O)NCc2ccccc2F)cc1`, `CCOc1ccc(S(=O)(=O)NCCc2ccccn2)cc1` is higher in solubility kinetic: 22.3 µg/mL (≈ 68.7 µM) for the first, > 46 µg/mL for the second.

`O=S(=O)(c1cnccc1N1CCN(CCO)CC1)N1CCCCC1` and `O=C(NCN1CCN(c2ccccc2)CC1)c1cnccn1` cannot be ordered by solubility kinetic: > 53.2 µg/mL for the first, > 44.6 µg/mL for the second.

Compared with `Cc1cc(C)cc(NC(=O)Nc2cccc(S(N)(=O)=O)c2)c1`, `Cc1cc(C)cc(NC(=O)c2cccc(NC(=O)c3ccco3)c2)c1` is 2.5-fold lower in solubility kinetic: 2.5 µg/mL (≈ 7.83 µM) for the first, 1 µg/mL (≈ 2.99 µM) for the second.

First: C=CCn1cc(C(=O)OCC)c(=O)c2cc(F)c(F)cc21
Second: CC(=O)c1cnc(Oc2cc(Cl)ccc2Cl)nc1C
The solubility kinetic of the first is higher: > 44 µg/mL for the first, 42.4 µg/mL (≈ 143 µM) for the second.

`Cn1c(=O)c2c(ncn2CC(=O)Nc2nccs2)n(C)c1=O` and `Cc1ccc(NC(=O)Cn2ccnc2)cc1C` are within 1.5-fold of each other in solubility kinetic: 26.1 µg/mL (≈ 81.5 µM) for the first, 30.4 µg/mL (≈ 133 µM) for the second.

First: O=C(CCNc1ccc(Br)cc1)c1cccc([N+](=O)[O-])c1
Second: O=C(Nc1ccc(F)cc1)c1ccc2ncsc2c1
The solubility kinetic of the first is 2.2-fold lower: 4.6 µg/mL (≈ 13.2 µM) for the first, 10.3 µg/mL (≈ 37.8 µM) for the second.

`CC(=O)c1ccc(OCC(=O)NC2CCCCCC2)cc1` and `CCN(CC(=O)NCc1ccc(F)cc1)CC(=O)NC1CCCC1` cannot be ordered by solubility kinetic: > 43.4 µg/mL for the first, > 50.3 µg/mL for the second.

Compared with `O=C(O)c1cc(N2C(=O)CCC2=O)ccc1Cl`, `CN1C2=NCCN2C(=O)c2cc(Cl)ccc21` is lower in solubility kinetic: > 38 µg/mL for the first, 30.9 µg/mL (≈ 131 µM) for the second.

`CCN(CC)c1c([N+](=O)[O-])c(=O)oc2ccccc12` and `CN(Cc1ccccc1)C(=O)COC(=O)c1cc(=O)c2ccccc2o1` cannot be ordered by solubility kinetic: > 39.3 µg/mL for the first, > 52.7 µg/mL for the second.

First: COc1cc(NC(=O)COC(C)=O)cc(OC)c1OC
Second: COC(=O)COc1c(/C=C\c2nc(O)c([N+](=O)[O-])c(=O)[nH]2)cccc1OC
The solubility kinetic of the first is lower: 39 µg/mL (≈ 138 µM) for the first, > 56.6 µg/mL for the second.

Going from `O=C1NS(=O)c2cc([N+](=O)[O-])cc([N+](=O)[O-])c21` (stereo not given) to `O=[N+]([O-])c1ccc2nc(-c3ccccc3)oc2c1`, the solubility kinetic falls from > 38.6 µg/mL to 0.4 µg/mL (≈ 1.67 µM).

First: Nc1ccc(N2CCCC2)c(S(=O)(=O)Nc2cccc(C(F)(F)F)c2)c1
Second: O=C(Nc1cccc(S(=O)(=O)N2CCCC2)c1)c1ccco1
The solubility kinetic of the first is lower: 25.8 µg/mL (≈ 66.9 µM) for the first, > 48.1 µg/mL for the second.

Going from `CC(=O)Nc1ccc(S(=O)(=O)NCCC(=O)OCC(=O)NCc2ccccc2)cc1` to `CC(C)(C)c1ccc(C(=O)NCCc2ccccc2)cc1`, the solubility kinetic falls from > 65 µg/mL to 0.8 µg/mL (≈ 2.84 µM).

Going from `CCN(CC)c1ccc(NC(=O)c2ccc(S(=O)(=O)N3CCOCC3)cc2)cc1` to `Cc1ccc(NC(=O)Cc2c(F)cccc2Cl)cc1S(=O)(=O)N1CCOCC1`, the solubility kinetic falls from 4.7 µg/mL (≈ 11.3 µM) to 2 µg/mL (≈ 4.68 µM) (2.4-fold).

`CCc1nnc(NC(=O)c2ccc(C)o2)s1` and `Cc1c(/C=N/NC(=O)c2ccc(Br)o2)cnn1C` cannot be ordered by solubility kinetic: > 35.6 µg/mL for the first, > 46.7 µg/mL for the second.

`COC(=O)c1scc(S(=O)(=O)C(C)(C)C)c1N` and `COC(=O)c1c(C)oc(C)c1S(=O)(=O)N1CCCC1` are within 1.5-fold of each other in solubility kinetic: 26 µg/mL (≈ 93.7 µM) for the first, 38.3 µg/mL (≈ 133 µM) for the second.

Compared with `Cc1nnc(SCC(=O)NC2CCCCC2)[nH]c1=O`, `O=C(CC1CCCCC1)NCc1ccccc1` is lower in solubility kinetic: > 42.4 µg/mL for the first, 30.5 µg/mL (≈ 132 µM) for the second.

First: Cc1cc2cc(CNC(=O)Nc3ccccc3)ccc2[nH]1
Second: CC(=O)c1cccc(NC(=O)c2cc(C)nn2-c2ccccc2)c1
The solubility kinetic of the first is lower: 15.6 µg/mL (≈ 55.8 µM) for the first, > 47.9 µg/mL for the second.

First: Cc1ccc2nc(-c3ccncc3)[nH]c2c1
Second: COc1cc2ccccc2cc1C(=O)Nc1ccc(C)cn1
The solubility kinetic of the first is higher: 28.1 µg/mL (≈ 134 µM) for the first, < 0.3 µg/mL for the second.

`COc1cc2nc(CN3CCN(S(=O)(=O)c4ccc(Br)cc4)CC3)[nH]c(=O)c2cc1OC` and `COc1ccc(/C=C/C(=O)N2CCN(S(=O)(=O)c3ccccc3Br)CC2)cc1OC` are within 1.5-fold of each other in solubility kinetic: 17.7 µg/mL (≈ 33.8 µM) for the first, 13.6 µg/mL (≈ 27.5 µM) for the second.

`CCCCN(C(=O)C1COc2ccccc2O1)c1c(N)n(CCC)c(=O)[nH]c1=O` (stereo not given) and `Brc1ccccc1OCCN1CCOCC1.O=C(O)C(=O)O` cannot be ordered by solubility kinetic: > 60.4 µg/mL for the first, > 56.4 µg/mL for the second.

Compared with `O=C(O)CC(NC(=O)C12CC3CC(CC(C3)C1)C2)c1ccc(F)cc1` (stereo not given), `O=C(Nc1ccccc1C(=O)NC1CC1)c1ccccc1` is lower in solubility kinetic: > 51.8 µg/mL for the first, 16.7 µg/mL (≈ 59.6 µM) for the second.

First: N/C(CS(=O)(=O)c1ccccn1)=N\OC(=O)c1ccccc1Cl
Second: NS(=O)(=O)c1cccc(NC(=O)CN2CCCc3ccccc32)c1
The solubility kinetic of the first is lower: 46.5 µg/mL (≈ 131 µM) for the first, > 51.8 µg/mL for the second.

`O=C(NC(=S)N1CCCCCC1)c1ccccc1Cl` and `N#Cc1ccc(NC(=O)CN2CCCC2)cc1Cl` cannot be ordered by solubility kinetic: > 44.5 µg/mL for the first, > 39.6 µg/mL for the second.

`Cc1ccc(OCC(=O)N2CCCCC2C)c([N+](=O)[O-])n1` (stereo not given) and `NC(=O)C1CCN(C(=O)/C=C/c2ccccc2[N+](=O)[O-])CC1` cannot be ordered by solubility kinetic: > 44 µg/mL for the first, > 45.5 µg/mL for the second.

Compared with `CC(=O)N1CCn2c3c(c4cc(C)ccc42)CCCC31` (stereo not given), `CCc1ccc(NC(=O)Cn2cc([N+](=O)[O-])nc2C)cc1` is 5.8-fold lower in solubility kinetic: 38.6 µg/mL (≈ 144 µM) for the first, 6.7 µg/mL (≈ 23.2 µM) for the second.

First: O=C(NC(=S)Nc1ccccc1Cl)c1cncc(Br)c1
Second: O=C(Nc1ccccc1C(=O)Nc1ccccc1)c1ccccc1F
The solubility kinetic of the first is higher: 1.2 µg/mL (≈ 3.24 µM) for the first, < 0.4 µg/mL for the second.

First: CCC(C)C(=O)Nc1nc2ccc(OC)cc2s1 (stereo not given)
Second: Cc1ccc(Nc2c(-c3ccc(N(C)C)cc3)nc3ncccn23)cc1
The solubility kinetic of the first is higher: > 39.7 µg/mL for the first, 1 µg/mL (≈ 2.91 µM) for the second.
